# Source: PubChem BioAssay (NCI)
# “And” between values parts separate entries of the source, which are not always exact repeats. Identical values can stand only once.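 Test compounds were applied to cells in 96-well plates for 48 hours at 5 doses. GI50 = concentration required for 50% inhibition of growth. TGI is the concentration that stops growth completely.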 The source made the active and inactive calls. No stated cut-off is given here; in the data, active means GI50 below about 0.43 µM; inactive means the rest.
# Legend:
# Test in all cases: growth of human tumour cells (NCI), 48 h
# SNB-78 CNS = tested on: SNB-78 CNS
# LXFL 529 NSCLC = tested on: LXFL 529 NSCLC
# DLD-1 colon = tested on: DLD-1 colon
# M19-MEL melanoma = tested on: M19-MEL melanoma
# HS 578T breast = tested on: HS 578T breast
# DU-145 prostate = tested on: DU-145 prostate
# BT-549 breast = tested on: BT-549 breast
# MDA-MB-231 breast = tested on: MDA-MB-231 breast
# PC-3 prostate = tested on: PC-3 prostate
Structure (SMILES),TGI (SNB-78 CNS),TGI (LXFL 529 NSCLC) [µM],TGI (DLD-1 colon) [µM],TGI (M19-MEL melanoma),also measured
C=C1C(=O)OC2/C=C(\C=O)CC/C=C(\C)C(O)C[C@@H]12 (stereo partly specified),18.8 µM,13.6,8.93,19.2 µM,–
COc1ccc2c(c1)[n+]([O-])c(/C(C)=N/NC(=O)CC#N)c[n+]2[O-],> 100 µM,> 100,> 100,> 100 µM,–
COC(=O)C1=C(CS(=O)c2ccccc2[N+](=O)[O-])ON(C)C1c1ccccc1 (stereo unspecified),> 100 µM,> 100,> 100,> 100 µM,–
Cc1cc2c(=O)c3ccccc3[nH]c2c(C(=O)O)c1C,> 100 µM,> 100,> 100,> 100 µM,–
O=C1CCC(O)=C1O,–,> 100,> 100,> 100 µM,–
S=c1nc(-c2cccnc2)[nH][nH]1,> 100 µM,> 100,> 100,–,–
CC(=O)O[C@@H]1C2C(=O)OC(=O)C2C2CCC[C@]23O[C@H]13 (stereo partly specified),> 100 µM,> 100,> 100,> 100 µM,–
CN1C(=O)C(Cl)(C(Cl)(Cl)S(=O)(=O)O)C(=O)c2ccccc21 (stereo unspecified),–,> 100,> 100,> 100 µM,–
COc1ccc(/C=C2\C(=O)N(C(=O)Cc3ccccc3)N=C2C)cc1OC,> 100 µM,–,–,> 100 µM,–
O=C(OC[C@H]1O[C@@H](OC(=O)c2cc(O)c(O)c(O)c2)[C@H](OC(=O)c2cc(O)c(O)c(O)c2)[C@@H](OC(=O)c2cc(O)c(O)c(O)c2)[C@@H]1OC(=O)c1cc(O)c(O)c(O)c1)c1cc(O)c(O)c(O)c1,80.3 µM,> 100,22.5,83.2 µM,–
O=[N+]([O-])c1nccn1COCCBr,–,> 100,> 100,> 100 µM,–
CCN(CC)c1ccc2c(c1)Nc1cc(=C(C#N)C#N)c3ccccc3c1=N2,> 100 µM,> 100,> 100,> 100 µM,–
C=C(C=O)CCCC(C)[C@@H]1CCC23CC12CCC1[C@@]2(C)CCC(OC(C)=O)C(C)(C)C2CC(OC2OC(COC(C)=O)C(O)C(O)C2O)[C@]13C (stereo partly specified),3.4 µM,8.44,–,–,–
C=C=C(C(=O)OC)S(=O)c1ccc([N+](=O)[O-])cc1[N+](=O)[O-] (stereo unspecified),–,38,29.7,62 µM,–
O=Cc1ccc(-c2cccs2)s1,> 100 µM,4.51,> 74.9,> 100 µM,TGI (HS 578T breast): 98 µM; TGI (DU-145 prostate): > 100 µM; TGI (BT-549 breast): > 100 µM; TGI (MDA-MB-231 breast): > 100 µM; TGI (PC-3 prostate): > 100 µM
O=c1[nH]c(=O)n(C2OC3COC2C3O)cc1F (stereo unspecified),> 100 µM,> 100,> 100,–,–
C[N+]1(C)C/C(=C\c2ccncc2)C(=O)/C(=C/c2ccncc2)C1,> 100 µM,> 100,> 100,> 100 µM,–
COc1cc(Br)c(C=Nc2cccc3ccc(OS(=O)(=O)c4cccc([N+](=O)[O-])c4)cc23)cc1OC,72.9 µM,> 100,> 100,> 100 µM,–
Nc1nc(CCC(=O)Nc2cccc(C(F)(F)F)c2)cc(-c2ccc3ccccc3c2)n1,> 100 µM,> 100,> 100,> 100 µM,–
CCOC(=O)c1cc(/C=C/C(C)=C/C(=O)OC)n(C)c1C,> 100 µM,> 100,> 100,> 100 µM,–
O=[N+]([O-])c1ccc2c(c1)[O][Sn][O]2,> 150 µg/mL,–,–,> 150 µg/mL,GI50 (SNB-78 CNS): 124 µg/mL; outcome (LXFL 529 NSCLC): inactive; GI50 (M19-MEL melanoma): 36.9 µg/mL
O=C([CH-]C(=O)C(F)(F)F)c1ccccc1.O=C([CH-]C(=O)C(F)(F)F)c1ccccc1.O=C([CH-]C(=O)C(F)(F)F)c1ccccc1.O=C([CH-]C(=O)C(F)(F)F)c1ccccc1.[Eu+3].c1ccncc1,–,> 100,> 100,62.8 µM,GI50 (LXFL 529 NSCLC): 4.2 µM; GI50 (DLD-1 colon): 7.12 µM; GI50 (M19-MEL melanoma): 10 µM
COC(=O)c1nc(N)[nH]c(=O)c1CCCCCc1c(C(=O)OC)nc(N)[nH]c1=O,> 50 µM,> 50,> 50,> 50 µM,–

Structure (SMILES),TGI (SNB-78 CNS),TGI (LXFL 529 NSCLC) [µM],TGI (DLD-1 colon) [µM],TGI (M19-MEL melanoma),also measured
CN[C@@H]1C[C@H]2O[C@@](C)([C@@H]1OC)n1c3ccccc3c3c4c(c5c6ccccc6n2c5c31)C(=O)N[C@@H]4O,0.225 µM,0.549,15,4.99 µM,TGI (DU-145 prostate): 1.16 µM; GI50 (BT-549 breast): 0.0193 µM; TGI (BT-549 breast): 0.3 µM and 0.627 µM; TGI (MDA-MB-231 breast): 0.202 µM; TGI (PC-3 prostate): 0.258 µM and 0.13 µM
CCOC(=O)CC1NC(=O)CS1 (stereo unspecified),> 100 µM,> 100,> 100,> 100 µM,–
CC1(C)C2CCC3(C2)CS(=O)(=O)N2OC231 (stereo unspecified),47.2 µM,30.6,47.5,29.8 µM,–
C[C-](O)O.O/C(=C\[C-](O)c1ccccc1)c1ccccc1.O/C(=C\[C-](O)c1ccccc1)c1ccccc1.[Nd+3] (stereo unspecified),–,> 100,44.2,42.7 µM,GI50 (LXFL 529 NSCLC): 5.79 µM; GI50 (DLD-1 colon): 9.17 µM; GI50 (M19-MEL melanoma): 12.2 µM
CN=C1SC(=Nc2ccc(N(C)C)cc2)N1C,> 100 µM,> 100,> 100,> 100 µM,–
COC(=O)c1c(-c2ccccc2)sc(-c2cccc3ccccc23)c1C(=O)OC,> 100 µM,> 100,> 100,> 100 µM,–
CCOc1ccccc1NC(=O)CCc1nc(=S)[nH][nH]1,> 100 µM,> 100,> 100,> 100 µM,–
Cc1ccc2c(c1)C(c1cccc3ccccc13)OC2=O (stereo unspecified),–,> 100,> 100,> 100 µM,–
CC[C@@]1(O)C(=O)OCc2c1cc1n(c2=O)Cc2cc3cc(N)ccc3nc2-1,–,3.15,> 100,0.289 µM and 0.222 µM,GI50 (HS 578T breast): 0.532 µM and 2.41 µM; GI50 (SNB-78 CNS): 0.0463 µM and 0.212 µM; GI50 (DU-145 prostate): 0.0144 µM; GI50 (BT-549 breast): 0.158 µM; TGI (BT-549 breast): 1.11 µM; GI50 (LXFL 529 NSCLC): 0.204 µM; GI50 (DLD-1 colon): 0.0885 µM and 0.346 µM; GI50 (MDA-MB-231 breast): 0.199 µM and 0.345 µM; TGI (MDA-MB-231 breast): 3.11 µM; GI50 (PC-3 prostate): 0.141 µM and 0.0842 µM
O=C1C2Cc3ccccc3CN2C(=O)N1CCN1CCCC1 (stereo unspecified),–,> 100,> 100,> 100 µM,–
Cc1c2cc[n+](C)cc2c(C)c2c1[nH]c1ccc(O)c(OCC(F)(F)F)c12,4.96 µM,8.16,44.4,11.8 µM,–
O=[N+]([O-])c1ccc2c(c1)[O][Sn]([I])([I])[O]2,> 100 µM,–,> 100,> 100 µM,GI50 (SNB-78 CNS): > 100 µM; GI50 (DLD-1 colon): > 100 µM; GI50 (M19-MEL melanoma): 85.3 µM
Cc1c(Cl)cccc1NC(=O)CC1C(=O)Nc2ccccc2S1(=O)=O (stereo unspecified),45.5 µM,29,30.4,55.3 µM,–
CC(C)[C@H]1C(=O)N[C@@H](CCCN=C(N)N)C(=O)NCC(=O)N[C@@H](CC(=O)O)C(=O)N[C@H](Cc2ccccc2)C(=O)N1C,–,–,–,–,GI50 (HS 578T breast): 19.8 µM; TGI (HS 578T breast): > 100 µM; GI50 (DU-145 prostate): 7.66 µM; TGI (DU-145 prostate): 70.6 µM; GI50 (BT-549 breast): 1.6 µM; TGI (BT-549 breast): 3.13 µM; GI50 (MDA-MB-231 breast): 1.83 µM; TGI (MDA-MB-231 breast): > 28.9 µM; GI50 (PC-3 prostate): > 100 µM; TGI (PC-3 prostate): > 100 µM
O=C(O)CSc1ncccc1[N+](=O)[O-],–,–,–,–,TGI (HS 578T breast): > 100 µM; TGI (DU-145 prostate): > 100 µM; TGI (BT-549 breast): > 100 µM; TGI (MDA-MB-231 breast): > 100 µM; TGI (PC-3 prostate): > 100 µM
CCOC(=O)[C@H]1Nc2ccc(OC)cc2C2c3ccccc3CC21 (stereo partly specified),> 100 µM,> 100,> 100,> 100 µM,–
N#C[C@@H]1C(n2ccc(N)nc2=O)O[C@H](CO)[C@H]1O (stereo partly specified),–,–,–,–,GI50 (HS 578T breast): > 100 µM; TGI (HS 578T breast): > 100 µM; GI50 (DU-145 prostate): 5.02 µM; TGI (DU-145 prostate): > 100 µM; GI50 (BT-549 breast): > 100 µM; TGI (BT-549 breast): > 100 µM; GI50 (MDA-MB-231 breast): > 100 µM; TGI (MDA-MB-231 breast): > 100 µM; GI50 (PC-3 prostate): 97.4 µM; TGI (PC-3 prostate): > 100 µM
CCN1CSC(=S)N(CC)C1,–,–,–,–,TGI (HS 578T breast): > 100 µM; TGI (DU-145 prostate): > 100 µM; TGI (BT-549 breast): > 100 µM; TGI (MDA-MB-231 breast): 73.9 µM; TGI (PC-3 prostate): > 100 µM
CCOC(=O)COS(=O)(=O)C(F)(F)F,> 100 µM,> 100,> 100,> 100 µM,–
C1=CC=C2NCCOCCNC3=CC=CC=CC3=NCCOCCN=C2C=C1,> 100 µM,> 100,> 100,> 100 µM,–
CC(C)(C)NC(=O)[C@H]1C[C@H]2CCCC[C@H]2CN1C[C@@H](O)[C@H](Cc1ccccc1)NC(=O)[C@H](CC(N)=O)NC(=O)c1ccc2ccccc2n1,–,–,–,–,GI50 (HS 578T breast): 16.4 µM; TGI (HS 578T breast): 60.2 µM; GI50 (DU-145 prostate): 1.78 µM; TGI (DU-145 prostate): 6.95 µM; GI50 (BT-549 breast): 11.2 µM; TGI (BT-549 breast): > 66.1 µM; GI50 (MDA-MB-231 breast): 13 µM; TGI (MDA-MB-231 breast): 26.7 µM; GI50 (PC-3 prostate): 7.17 µM; TGI (PC-3 prostate): 26.8 µM
N.N.N.N.N.N.O=N[O-].[Br-].[Co+3].[Co+3].[OH3+].[OH3+],> 100 µM,> 100,> 100,–,GI50 (SNB-78 CNS): > 100 µM; GI50 (LXFL 529 NSCLC): > 100 µM; GI50 (DLD-1 colon): > 100 µM
